Results on three compounds are retold here after patent publication US8030547B2, “Gene coding for acetolactate synthase” (priority 2002, dated 2011).

Structures are written as SMILES.

Test [1] addresses T1, GST fusion P171H/W548L/S627I mutant ALS protein (Oryza sativa subsp. japonica, UniProt Q6K2E8, P171H/S627I/W548L).
T1 construct: made in house; host or cells: E. coli, pGEX-2T(ALS-P171H, W548L, S627I mutant); crude supernatant
Description: Herbicide sensitivity of ALS protein expressed in E. coli (crude enzyme solution), P171H/W548L/S627I. The class given is biochemical, rice (Oryza sativa var. Kinmaze). The note with it: for RS ratio: P171H/W548L/S627I mutant vs wild type; for Predicted RS ratio / RS ratio/ predicted RS ratio: P171H/W548L/S627I mutant; for Predicted RS ratio: product of RS ratios of the 1-point mutants. The protocol: (§1) ALS activity resulting from the mutant ALS protein contained in the eluted fractions apportioned into each test tube for apportioning was measured as follows. A reaction solution to be used in a measurement reaction was prepared by mixing an eluted fraction to be measured with a solution comprising 20 mM sodium pyruvate, 0.5 mM TPP, 0.5 mM MgCl2, 10 μM FAD and 20 mM potassium phosphate buffer (pH 7.5). One ml of this reaction solution was used. After the eluted fraction to be measured was added, the measurement reaction was performed at 30° C. for 40 to 60 minutes. Then, the reaction was stopped by addition of 0.1 ml of 6N sulfuric acid (or 0.25 N sodium hydroxide).
(§2) After the reaction was stopped, the reaction solution was incubated at 60° C. for 10 minutes, thereby converting acetolactate contained in the reaction solution to acetoin.
(§3) Then, to quantify acetoin contained in the reaction solution, 1 ml of 0.5% (w/v) creatine and 1 ml of 5% (w/v) α-naphthol dissolved in 2.5 N sodium hydroxide was added to the reaction solution, followed by incubation at 37° C. for 10 minutes. Acetoin was then quantified by color comparison of the absorbance (at 525 nm) of the reaction solution, thereby evaluating ALS activity. In addition, since the reaction solution contained a small amount of sodium pyruvate, reaction time 0 was used as control.
E. coli transformed with pGEX-2T(ALS-wild) constructed in Example 3(5), E. coli transformed with pGEX-2T(ALS-W548L mutant) constructed in Example 5, E. coli transformed with pGEX-2T(ALS-S627I mutant) constructed in Example 5, E. coli transformed with pGEX-2T(ALS P171H mutant) constructed in Example 6, E. coli transformed with pGEX-2T(ALS R172S mutant) constructed in Example 6, E. coli transformed with pGEX-2T(ALS P171H, R172S mutant) constructed in Example 7, E. coli transformed with pGEX-2T(ALS-P171H, W548L mutant) constructed in Example 8, E. coli transformed with pGEX-2T(ALS-P171H, S627I mutant) constructed in Example 8, and E. coli transformed with pGEX-2T(ALS-P171H, W548L, S627I mutant) constructed in Example 9 were respectively shake-cultured (pre-culture) at 27° C. in 2 ml of LB liquid medium containing ampicillin. These types of E. coli were respectively cultured in 250 ml of LB liquid medium containing ampicillin using 1 ml of the pre-culture solution. After culturing overnight, 1 mM IPTG was added to the media, and then culturing was performed for a further 3 to 4 hours, so that the expression of GST fusion protein was induced. In addition, the cells were stored at −80° C. after washing.
Preparation and purification of ALS from E. coli were performed by the following method. First, the pellet of the transformant E. coli stored at −80° C. was suspended in ALS extraction buffer (potassium phosphate buffer (pH 7.5) containing 30% glycerol and 0.5 mM MgCl2). Specifically, 2.5 ml of the buffer was added to the pellet obtained from 50 ml of the culture solution. The suspension was subjected to ultrasonication (Heat Systems-Ultrasonics, Sonicator W-225R, micro chip, output control 8, interval of approximately 1 second, twice (40 seconds each)), and subjected to centrifugation at 15000×g, 4° C. for 20 minutes, thereby obtaining the supernatant as a crude enzyme solution.
Herbicide sensitivity of the wild type ALS protein and that of mutant ALS protein were examined using the 9 types of crude enzyme solutions obtained in Example 10. Herbicide sensitivity test was performed according to procedures almost the same as those in Example 2. However, in this example, reaction temperature was 37° C., reaction time was 30 minutes, and 10 mM valine was added to the reaction solution to inhibit ALS activity derived from E. coli. Further, three types of herbicides, bispyribac-sodium, pyrithiobac-sodium, and pyriminobac, were used as PC herbicides; chlorsulfuron was used as a sulfonylurea herbicide; and imazaquin was used as an imidazolinon herbicide. […]

Test [2] deals with mutant ALS protein of Vg line. Description: Herbicide sensitivity of partially purified ALS protein (ALS activity inhibition), Vg line. The class given is biochemical, Oryza sativa var. Kinmaze. The note with it: I50 of the resistant mutant divided by I50 of the wild type. As for the experimental part:
(§4) First, 200 g or more of resistant mutant was prepared by a liquid culture method (no supplementation with bispyribac-sodium), using a composition as shown in Table 3 excluding Gelrite. Then, about 150 g of the resistant mutant was homogenized using Hiscotron in a volume of buffer-1 [100 mM potassium phosphate buffer (pH 7.5) containing 20% (v/v) glycerol, […] thiamin pyrophosphate (TPP), 10 μM flavin adenine dinucleotide (FAD), 0.5 mM MgCl2, and a volume of polyvinyl polypyrrolidone one-tenth that of tissue volume] 3-fold greater than tissue volume. The homogenate was filtered through nylon gauze, and then centrifuged at 15000×g for 20 minutes. Ammonium sulfate was added to the centrifuged supernatant to 50% saturation, and then allowed to stand in ice for approximately 1 hour. The mixture was again centrifuged at 15000×g for 20 minutes, and then the precipitated fraction was dissolved in approximately 30 ml of buffer-2 [10 mM Tris hydrochloric acid buffer (pH 7.5) containing 20% (v/v) glycerol, 0.5 mM TPP and 0.5 mM MgCl2]. The mixture was again centrifuged at 15000×g for 20 minutes, and then the supernatant fraction was applied to a Sephadex G-25 (Amersham Bioscience). About 40 ml of the fraction that had passed through the column was collected as a crude enzyme solution.
(§5) Next, the protein concentration of the crude enzyme solution was measured by the Bradford method according to the manual of Bio-Rad Protein Assay. The crude enzyme solution was then filtered through a Whatman filter (Whatman), and then the crude enzyme solution in an appropriate protein amount (10 to 15 ml) was applied to three vertically-connected HiTrap Q columns (Amersham Bioscience) using a FPLC device (Amersham Bioscience). After protein component was adsorbed using HiTrap Q, unadsorbed fractions were washed out using buffer-2 having a volume 3 to 5 fold greater than the bed volume. Then, the adsorbed protein component was eluted using an eluate having a volume 10 fold greater than the bed volume (150 ml). Here, the eluate was prepared by dissolving KCl with a linear concentration gradient (0 to 0.4 M) into buffer-2. The eluate containing the eluted protein component was apportioned, 5 ml each, into a plurality of test tubes for apportioning. Further, to stabilize ALS protein contained in the eluted protein component, 0.5 ml of buffer-2 containing 20 mM sodium pyruvate had been previously added to each test tube for apportioning.
as §1, §2, §3
(§6) Using the enzyme solution containing the mutant ALS protein, sensitivity of the mutant ALS protein to bispyribac-sodium, chlorsulfuron and imazaquin was examined. […]

For test [3], the target named is T2, mutant ALS protein of Vg line (Oryza sativa subsp. japonica, UniProt Q6K2E8).
T2 construct: other: partially purified ALS, 30° C., probit analysis
The test is described as above. The settings on record: read-out: I50 (nM) Vg; partially purified ALS, 30° C., probit analysis. The class given is biochemical, Oryza sativa var. Kinmaze. The protocol: as §4, §5, §1, §2, §3, §6

The mark [4] stands for this setting: read-out: inhibition % at the highest concentration among the concentrations tested.

T2 sequence (Q6K2E8 whole entry W548L, form open): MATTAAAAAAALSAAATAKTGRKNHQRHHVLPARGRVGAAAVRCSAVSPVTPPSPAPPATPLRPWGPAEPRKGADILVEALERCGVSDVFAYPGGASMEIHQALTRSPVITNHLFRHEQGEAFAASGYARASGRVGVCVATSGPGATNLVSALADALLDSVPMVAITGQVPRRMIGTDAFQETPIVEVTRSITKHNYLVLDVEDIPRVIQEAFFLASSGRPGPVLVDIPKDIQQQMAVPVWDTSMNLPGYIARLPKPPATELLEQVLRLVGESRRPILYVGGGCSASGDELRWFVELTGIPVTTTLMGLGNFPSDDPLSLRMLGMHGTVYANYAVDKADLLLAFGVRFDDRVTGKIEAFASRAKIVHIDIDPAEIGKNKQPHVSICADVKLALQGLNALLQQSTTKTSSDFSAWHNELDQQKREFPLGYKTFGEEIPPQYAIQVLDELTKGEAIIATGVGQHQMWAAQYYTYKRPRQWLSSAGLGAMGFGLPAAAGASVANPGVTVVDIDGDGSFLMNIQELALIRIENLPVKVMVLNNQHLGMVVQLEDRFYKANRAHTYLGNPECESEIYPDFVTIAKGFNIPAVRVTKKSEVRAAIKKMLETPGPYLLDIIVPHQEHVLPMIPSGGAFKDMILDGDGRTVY
T1 sequence (Q6K2E8 44-644 P171H/W548L/S627I): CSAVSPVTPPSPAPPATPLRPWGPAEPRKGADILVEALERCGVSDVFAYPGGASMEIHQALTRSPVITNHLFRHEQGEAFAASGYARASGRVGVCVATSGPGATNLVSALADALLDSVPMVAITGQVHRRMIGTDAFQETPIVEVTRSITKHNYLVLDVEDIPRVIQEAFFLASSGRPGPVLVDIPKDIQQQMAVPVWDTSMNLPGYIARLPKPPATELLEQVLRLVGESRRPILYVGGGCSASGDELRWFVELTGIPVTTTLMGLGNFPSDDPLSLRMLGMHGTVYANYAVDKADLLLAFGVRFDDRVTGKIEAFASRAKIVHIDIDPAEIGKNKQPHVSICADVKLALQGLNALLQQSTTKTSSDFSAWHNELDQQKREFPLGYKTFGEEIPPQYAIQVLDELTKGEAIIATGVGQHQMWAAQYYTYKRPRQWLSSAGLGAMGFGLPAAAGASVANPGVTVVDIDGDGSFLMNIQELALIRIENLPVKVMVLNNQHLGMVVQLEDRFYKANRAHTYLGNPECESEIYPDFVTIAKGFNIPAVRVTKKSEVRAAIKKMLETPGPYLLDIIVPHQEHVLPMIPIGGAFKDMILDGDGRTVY

As to `CC(C)C1(C)N=C(c2nc3ccccc3cc2C(=O)O)NC1=O` (stereo not shown) [imazaquin], in test [1], the RS ratio is on record as greater than 45 and the “Predicted RS ratio” value is greater than 460. Besides, in test [1] (setting [4]), the inhibition at 100 µM came out at 15%. Besides, the “RS ratio Vg” value in test [2] amounted to 29.8. For the same compound, the IC50 in test [3] worked out at 44100 nM.

On to `COc1nc(C)nc(NC(=O)NS(=O)(=O)c2ccccc2Cl)n1` [chlorsulfuron], for which, in test [1], the “RS ratio/ predicted RS ratio” value is on record as greater than 0.24 and the “Predicted RS ratio” value is 160000. In test [1] (setting [4]), the inhibition at 500 µM amounted to 30%. Moreover, in test [2], the “RS ratio Vg” value worked out at 28.6. In addition, the IC50 in test [3] came to 495 nM.

In the case of `COc1cc(OC)nc(Oc2cccc(Oc3nc(OC)cc(OC)n3)c2C(=O)O)n1` [bispyribac-sodium], in test [1], the “RS ratio/ predicted RS ratio” value is greater than 0.084, the RS ratio is greater than 16000 and the “Predicted RS ratio” value is 190000. Also, the inhibition at 100 µM in test [1] (setting [4]) was determined as 1.1%. In test [2], the “RS ratio Vg” value came to 17.3. Besides, in test [3], the IC50 stood at 97.2 nM.
